From ChEMBL document CHEMBL5247648, “Design, Synthesis, and Anti-Cancer Evaluation of Novel Cyclic Phosphate Prodrug of Gemcitabine” (J Med Chem, 2023) come the findings set out here.

Molecules are shown by their SMILES. pIC50: −log10 of the molar value.

The first test has as its system CWR22R. Kind of test: Antiproliferative activity against human 22Rv1 cells assessed as inhibition of cell proliferation treated for 72 hrs by resazurin dye-based fluorescence assay. The class given is functional. Conditions: 22Rv1, 72 h. For orientation: Alamar Blue is a resazurin reagent that responds to reducing activity.
As usually defined, the pIC50 is the IC50 on a negative log10 scale, so that one unit is a factor of ten. For `COC(=O)COP1(=O)OC[C@H]2O[C@@H](n3ccc(N)nc3=O)C(F)(F)[C@@H]2O1` (stereo partly drawn), the pIC50 is 7.67.

Regarding `Nc1ccn([C@@H]2O[C@@H]3CO[P@@](=O)(OCC(=O)OCc4ccccc4)O[C@H]3C2(F)F)c(=O)n1`, the pIC50 was 8.09.

With `CCOC(=O)COP1(=O)OC[C@H]2O[C@@H](n3ccc(N)nc3=O)C(F)(F)[C@@H]2O1` (stereo partly drawn), the pIC50 was 7.69.

Turning to `CC(C)OC(=O)COP1(=O)OC[C@H]2O[C@@H](n3ccc(N)nc3=O)C(F)(F)[C@@H]2O1` (stereo partly drawn), the pIC50 is 7.82.

A further test relates to BXPC-3. Kind of test: Antiproliferative activity against human BXPC-3 cells assessed as inhibition of cell proliferation treated for 72 hrs by resazurin dye-based fluorescence assay. It is filed as functional. Conditions: BXPC-3, 72 h.
As for `Nc1ccn([C@@H]2O[C@@H]3COP(=O)(OCCC(=O)OCc4ccccc4)O[C@H]3C2(F)F)c(=O)n1` (stereo partly drawn), the pIC50 is 7.16.

Regarding `COC(=O)COP1(=O)OC[C@H]2O[C@@H](n3ccc(N)nc3=O)C(F)(F)[C@@H]2O1` (stereo partly drawn), the pIC50 was 7.51.

On to `Nc1ccn([C@@H]2O[C@@H]3CO[P@@](=O)(OCC(=O)OCc4ccccc4)O[C@H]3C2(F)F)c(=O)n1`, for which the negative logarithm of the IC50 (pIC50) was 7.82.

Take `CCOC(=O)COP1(=O)OC[C@H]2O[C@@H](n3ccc(N)nc3=O)C(F)(F)[C@@H]2O1` (stereo partly drawn): the pIC50 was 7.65.

With `CC(C)OC(=O)COP1(=O)OC[C@H]2O[C@@H](n3ccc(N)nc3=O)C(F)(F)[C@@H]2O1` (stereo partly drawn), the pIC50 was 7.32.

The test system of a further test is MM1.S. As to the kind of experiment: Antiproliferative activity against human MM1.S cells assessed as inhibition of cell proliferation treated for 72 hrs by resazurin dye-based fluorescence assay. The class given is functional.
Details: not given
With `COC(=O)COP1(=O)OC[C@H]2O[C@@H](n3ccc(N)nc3=O)C(F)(F)[C@@H]2O1` (stereo partly drawn), the pIC50 was 8.57.

As for `Nc1ccn([C@@H]2O[C@@H]3CO[P@@](=O)(OCC(=O)OCc4ccccc4)O[C@H]3C2(F)F)c(=O)n1`, the pIC50 is 8.22.

On to `CCOC(=O)COP1(=O)OC[C@H]2O[C@@H](n3ccc(N)nc3=O)C(F)(F)[C@@H]2O1` (stereo partly drawn), for which the pIC50 was 8.41.

In the case of `CC(C)OC(=O)COP1(=O)OC[C@H]2O[C@@H](n3ccc(N)nc3=O)C(F)(F)[C@@H]2O1` (stereo partly drawn), the negative-log IC50 (pIC50) is 8.27.

The next test deals with MV4-11. As to the kind of experiment: Antiproliferative activity against human MV4-11 cells assessed as inhibition of cell proliferation treated for 72 hrs by resazurin dye-based fluorescence assay. It is filed as functional. Conditions: MV4-11, 72 h.
For `COC(=O)COP1(=O)OC[C@H]2O[C@@H](n3ccc(N)nc3=O)C(F)(F)[C@@H]2O1` (stereo partly drawn), the pIC50 was 8.24.

On to `Nc1ccn([C@@H]2O[C@@H]3CO[P@@](=O)(OCC(=O)OCc4ccccc4)O[C@H]3C2(F)F)c(=O)n1`, for which the pIC50 was 8.39.

`CCOC(=O)COP1(=O)OC[C@H]2O[C@@H](n3ccc(N)nc3=O)C(F)(F)[C@@H]2O1` (stereo partly drawn): the pIC50 is 8.21.

For the compound `CC(C)OC(=O)COP1(=O)OC[C@H]2O[C@@H](n3ccc(N)nc3=O)C(F)(F)[C@@H]2O1` (stereo partly drawn), the pIC50 was 8.31.

The test system of another test is MIA PaCa-2. As to the kind of experiment: Antiproliferative activity against human MIA PaCa-2 cells assessed as inhibition of cell proliferation treated for 72 hrs by resazurin dye-based fluorescence assay. Conditions: MIA PaCa-2, 72 h. It is filed as functional.
For the compound `Nc1ccn([C@@H]2O[C@@H]3COP(=O)(OCCC(=O)OCc4ccccc4)O[C@H]3C2(F)F)c(=O)n1` (stereo partly drawn), the pIC50 was 7.54.

With `COC(=O)COP1(=O)OC[C@H]2O[C@@H](n3ccc(N)nc3=O)C(F)(F)[C@@H]2O1` (stereo partly drawn), the pIC50 was 7.87.

On to `CCOC(=O)COP1(=O)OC[C@H]2O[C@@H](n3ccc(N)nc3=O)C(F)(F)[C@@H]2O1` (stereo partly drawn), for which the pIC50 is 7.79.

As for `CC(C)OC(=O)COP1(=O)OC[C@H]2O[C@@H](n3ccc(N)nc3=O)C(F)(F)[C@@H]2O1` (stereo partly drawn), the pIC50 was 7.62.

Another test has as its system Huh-7. Kind of test: Antiproliferative activity against human Huh-7 cells assessed as inhibition of cell proliferation treated for 72 hrs by resazurin dye-based fluorescence assay. The class given is functional. Particulars: Huh-7, 72 h.
Consider `COC(=O)COP1(=O)OC[C@H]2O[C@@H](n3ccc(N)nc3=O)C(F)(F)[C@@H]2O1` (stereo partly drawn), for which the pIC50 was 7.64.

With `Nc1ccn([C@@H]2O[C@@H]3CO[P@@](=O)(OCC(=O)OCc4ccccc4)O[C@H]3C2(F)F)c(=O)n1`, the pIC50 was 7.66.

As for `CCOC(=O)COP1(=O)OC[C@H]2O[C@@H](n3ccc(N)nc3=O)C(F)(F)[C@@H]2O1` (stereo partly drawn), the pIC50 is 7.42.

For the compound `CC(C)OC(=O)COP1(=O)OC[C@H]2O[C@@H](n3ccc(N)nc3=O)C(F)(F)[C@@H]2O1` (stereo partly drawn), the pIC50 was 7.58.

Another test relates to JeKo-1. Kind of test: Antiproliferative activity against human JeKo-1 cells assessed as inhibition of cell proliferation treated for 72 hrs by resazurin dye-based fluorescence assay. It is filed as functional. Conditions: JeKo-1, 72 h.
As for `COC(=O)COP1(=O)OC[C@H]2O[C@@H](n3ccc(N)nc3=O)C(F)(F)[C@@H]2O1` (stereo partly drawn), the pIC50 was 7.63.

On to `CCOC(=O)COP1(=O)OC[C@H]2O[C@@H](n3ccc(N)nc3=O)C(F)(F)[C@@H]2O1` (stereo partly drawn), for which the pIC50 was 7.50.

As for `CC(C)OC(=O)COP1(=O)OC[C@H]2O[C@@H](n3ccc(N)nc3=O)C(F)(F)[C@@H]2O1` (stereo partly drawn), the pIC50 is 7.63.
